We go through 23 compounds from patent publication US10689354B2, “Aminoazole derivative” (Teijin Pharma Limited, priority 2015, dated 2020).

In experiment [1] the target is T1, androgen receptor (AR-LBD) (Rattus norvegicus, UniProt P15207).
T1 construct: 5 μL of 2×AR-LBD/Fluoromone AL Red Complex contained in the kit; purchased Invitrogen
T1 sequence (P15207 651-882 limits assumed): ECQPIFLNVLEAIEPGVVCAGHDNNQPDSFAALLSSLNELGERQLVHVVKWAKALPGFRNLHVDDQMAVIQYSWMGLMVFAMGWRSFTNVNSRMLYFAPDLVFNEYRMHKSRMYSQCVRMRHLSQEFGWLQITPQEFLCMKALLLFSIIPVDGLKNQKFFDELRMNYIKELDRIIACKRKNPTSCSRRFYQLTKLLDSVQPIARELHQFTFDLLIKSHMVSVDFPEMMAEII
Description: Evaluation of androgen receptor affinity (PolarScreen Androgen Receptor Competitor Assay Kit, Red; fluorescence polarization). Conditions: 22° C. for 5 hours, relative to binding rate of 1 μM DHT, read-out: AR affinity (pEC50) (converted). The gist of the method: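 pEC50 values reflect tracer displacement from AR-LBD (Fluoromone AL Red complex) measured by fluorescence polarization after 5 h at 22° C, normalized to 1 μM DHT and fitted with a 4-parameter model.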
Background: In fluorescence polarisation assays a small probe gives low polarisation when free and higher when bound to something large.

The target of another experiment is T2, human androgen receptor (Homo sapiens, UniProt P10275).
T2 construct: expressed in transfected cells; host or cells: HEK293
T2 sequence (P10275 1-920): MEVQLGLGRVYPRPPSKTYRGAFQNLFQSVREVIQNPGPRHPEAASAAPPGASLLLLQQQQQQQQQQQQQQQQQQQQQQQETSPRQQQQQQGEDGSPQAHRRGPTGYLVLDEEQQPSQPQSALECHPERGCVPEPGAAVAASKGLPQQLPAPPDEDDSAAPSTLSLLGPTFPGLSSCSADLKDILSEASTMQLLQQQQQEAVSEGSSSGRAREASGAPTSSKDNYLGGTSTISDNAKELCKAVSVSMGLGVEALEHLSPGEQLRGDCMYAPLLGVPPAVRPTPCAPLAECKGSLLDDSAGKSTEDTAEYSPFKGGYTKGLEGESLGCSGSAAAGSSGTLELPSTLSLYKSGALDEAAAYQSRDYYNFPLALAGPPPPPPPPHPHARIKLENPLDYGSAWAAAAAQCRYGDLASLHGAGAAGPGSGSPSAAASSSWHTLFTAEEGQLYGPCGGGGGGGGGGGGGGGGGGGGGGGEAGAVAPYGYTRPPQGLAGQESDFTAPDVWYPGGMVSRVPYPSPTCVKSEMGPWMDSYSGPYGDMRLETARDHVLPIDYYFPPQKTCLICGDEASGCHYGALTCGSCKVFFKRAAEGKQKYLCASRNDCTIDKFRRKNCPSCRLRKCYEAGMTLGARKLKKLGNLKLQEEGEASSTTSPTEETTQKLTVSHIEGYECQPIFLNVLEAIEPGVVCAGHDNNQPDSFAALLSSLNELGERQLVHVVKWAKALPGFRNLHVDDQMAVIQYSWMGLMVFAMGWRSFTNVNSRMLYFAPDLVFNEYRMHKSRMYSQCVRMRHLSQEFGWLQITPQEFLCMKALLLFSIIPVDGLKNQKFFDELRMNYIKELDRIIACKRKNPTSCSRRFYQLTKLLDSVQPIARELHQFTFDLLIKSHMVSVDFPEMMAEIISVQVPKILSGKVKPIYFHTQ
The experiment in a line: Reporter assay of an androgen receptor responsive sequence (luciferase, transiently transfected HEK293 cells). In kind it is cell-based. As to conditions: 24 hours incubation, relative to activity of 100 nM DHT, read-out: AR transcriptive activity (pEC50) (converted). Summed up: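 HEK293 cells transiently transfected for 3 h with ARE-firefly luciferase, full-length human AR and TK-Renilla plasmids, then exposed to compound for 24 h at 37 °C in 5% charcoal-treated FBS/DMEM. Dual-Glo luminescence read; pEC50 from 4-parameter fit relative to 100 nM DHT.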
A general note: In a reporter assay the amount or activity of a reporter protein is the signal.

For the compound `Cc1oc(N(CCc2ccc(Cl)cc2)Cc2ccccc2)nc1C(=O)NS(C)(=O)=O` [Example 220, 2-[benzyl-[2-(4-chlorophenyl)ethyl]amino]-5-methyl-N-methylsulfonyl-oxazole-4-carboxamide], the EC50 in experiment [1] is 39.8 nM; at human androgen receptor, 316 nM.
In the same order, the values of `CCc1sc(N(Cc2ccccc2)c2ccc(C#N)cc2)nc1C(=O)NS(C)(=O)=O` [Compound 599, 2-(N-benzyl-4-cyano-anilino)-5-ethyl-N-methylsulfonyl-thiazole-4-carboxamide] are 63.1 nM and 79.4 nM.
Take `CS(=O)(=O)NC(=O)c1nc(N(Cc2ccc(C(F)(F)F)cn2)c2ccc(C#N)cc2)sc1Br` [Compound 643, 5-bromo-2-[4-cyano-N-[[5-(trifluoromethyl)-2-pyridyl]methyl]anilino]-N-methylsulfonyl-thiazole-4-carboxamide]: the results for the EC50 (in experiment [1]; on human androgen receptor) were 79.4 nM and 63.1 nM, respectively.
In the same order, the values of `Cc1sc(N(Cc2ccc(Cl)cc2)c2ccc(C#N)cc2)nc1C(=O)NS(C)(=O)=O` [Compound 23, 2-[N-[(4-chlorophenyl)methyl]-4-cyano-anilino]-5-methyl-N-methylsulfonyl-thiazole-4-carboxamide] are 63.1 nM and 25.1 nM.
With `CS(=O)(=O)NC(=O)c1nc(N(Cc2ccc(Cl)cn2)c2ccc(C(F)(F)F)nc2)sc1Br` [Compound 644, 5-bromo-2-[(5-chloro-2-pyridyl)methyl-[6-(trifluoromethyl)-3-pyridyl]amino]-N-methylsulfonyl-thiazole-4-carboxamide], the values for the EC50 (in experiment [1]; at human androgen receptor) were 200 nM and 501 nM, respectively.
In the same order, the values of `CS(=O)(=O)NC(=O)c1nc(N(Cc2ccc(C(F)(F)F)cc2)c2ccc(C#N)cc2)sc1Cl` [Example 272, 5-chloro-2-[4-cyano-N-[[4-(trifluoromethyl)phenyl]methyl]anilino]-N-methylsulfonyl-thiazole-4-carboxamide] are 31.6 nM and 25.1 nM.
In the same order, the values of `Cc1sc(N(Cc2ccc(F)cc2)[C@H]2C[C@@H]2c2ccccc2)nc1C(=O)NS(C)(=O)=O` (racemic) [Compound 149, 2-[(4-fluorophenyl)methyl-(trans-2-phenylcyclopropyl)amino]-5-methyl-N-methylsulfonyl-thiazole-4-carboxamide] are 158 nM and 1000 nM.
Consider `Cc1sc(N(CCc2ccccc2)Cc2ccccc2)nc1C(=O)NS(C)(=O)=O` [Example 294, 2-[benzyl(2-phenylethyl)amino]-5-methyl-N-methylsulfonyl-thiazole-4-carboxamide], for which the EC50 was 100 nM in experiment [1] and 1000 nM on human androgen receptor.
For `Cc1sc(N(CCC2CCCCC2)Cc2ccc(Cl)cc2)nc1C(=O)NS(=O)(=O)Cc1cccc(F)c1` [Compound 731, 2-[(4-chlorophenyl)methyl-(2-cyclohexylethyl)amino]-N-[(3-fluorophenyl)methylsulfonyl]-5-methyl-thiazole-4-carboxamide] the same measures were 501 nM and more than 10000 nM.
In the same order, the values of `Cc1sc(N(CCc2ccc(Cl)cc2)Cc2cccc(F)c2)nc1C(=O)NS(C)(=O)=O` [Compound 143, 2-[2-(4-chlorophenyl)ethyl-[(3-fluorophenyl)methyl]amino]-5-methyl-N-methylsulfonyl-thiazole-4-carboxamide] are 25.1 nM and 50.1 nM.
For `Cc1sc(N(CCC(C)C)c2ccc(C#N)cc2)nc1C(=O)NS(C)(=O)=O` [Compound 66, 2-(4-cyano-N-isopentyl-anilino)-5-methyl-N-methylsulfonyl-thiazole-4-carboxamide] the same measures were 79.4 nM and 794 nM.
For the compound `CS(=O)(=O)NC(=O)c1nc(N(Cc2ccccc2Cl)c2ccc(C#N)cc2)sc1Br` [Example 240, 5-bromo-2-[N-[(2-chlorophenyl)methyl]-4-cyano-anilino]-N-methylsulfonyl-thiazole-4-carboxamide], the figures for the EC50 (in experiment [1]; on human androgen receptor) were 79.4 nM and 200 nM, respectively.
For `CCc1oc(N(Cc2ccc(C(F)(F)F)nc2)c2ccc(C#N)cc2)nc1C(=O)NS(C)(=O)=O` [Compound 639, 2-[4-cyano-N-[[6-(trifluoromethyl)-3-pyridyl]methyl]anilino]-5-ethyl-N-methylsulfonyl-oxazole-4-carboxamide] the same measures were 251 nM and 7940 nM.
In the same order, the values of `Cc1sc(N(CC2CCC(F)(F)CC2)c2ccc(C#N)cc2)nc1C(=O)NS(C)(=O)=O` [Compound 39, 2-[4-cyano-N-[(4,4-difluorocyclohexyl)methyl]anilino]-5-methyl-N-methylsulfonyl-thiazole-4-carboxamide] are 251 nM and 1260 nM.
In the same order, the values of `Cc1sc(N(Cc2cccc(F)c2F)c2ccc(C#N)cc2)nc1C(=O)NS(C)(=O)=O` [Compound 102, 2-[4-cyano-N-[(2,3-difluorophenyl)methyl]anilino]-5-methyl-N-methylsulfonyl-thiazole-4-carboxamide] are 79.4 nM and 50.1 nM.
On to `Cc1sc(N(Cc2ccc(OCCCO)cc2)c2ccc(C#N)cc2)nc1C(=O)NS(C)(=O)=O` [Compound 579, 2-[4-cyano-N-[[4-(3-hydroxypropoxy)phenyl]methyl]anilino]-5-methyl-N-methylsulfonyl-thiazole-4-carboxamide], for which the figures for the EC50 (in experiment [1]; at human androgen receptor) were 200 nM and 7940 nM, respectively.
For `Cc1sc(N(Cc2ccccc2O)c2ccc(C#N)cc2)nc1C(=O)NS(C)(=O)=O` [Compound 461, 2-[4-cyano-N-[(2-hydroxyphenyl)methyl]anilino]-5-methyl-N-methylsulfonyl-thiazole-4-carboxamide] the same measures were 100 nM and 158 nM.
As to `Cc1sc(N(Cc2ccc(C(F)F)c(F)c2)c2ccc(C#N)cc2)nc1C(=O)NS(C)(=O)=O` [Compound 155, 2-[4-cyano-N-[[4-(difluoromethyl)-3-fluoro-phenyl]methyl]anilino]-5-methyl-N-methylsulfonyl-thiazole-4-carboxamide], the figures for the EC50 (in experiment [1]; at human androgen receptor) were 31.6 nM and 15.8 nM, respectively.
For `Cc1oc(N(CC2CCC(F)(F)CC2)c2ccc(C#N)cc2)nc1C(=O)NS(C)(=O)=O` [Compound 621, 2-[4-cyano-N-[(4,4-difluorocyclohexyl)methyl]anilino]-5-methyl-N-methylsulfonyl-oxazole-4-carboxamide] the same measures were more than 2000 nM and more than 10000 nM.
In the same order, the values of `COc1ccc(F)cc1CN(c1ccc(C#N)cc1)c1nc(C(=O)NS(C)(=O)=O)c(C)s1` [Compound 105, 2-[4-cyano-N-[(5-fluoro-2-methoxy-phenyl)methyl]anilino]-5-methyl-N-methylsulfonyl-thiazole-4-carboxamide] are 126 nM and 316 nM.
Consider `CSc1ccc(CN(c2ccc(C#N)cc2)c2nc(C(=O)NS(C)(=O)=O)c(C)s2)cc1` [Compound 11, 2-[4-cyano-N-[(4-methylsulfanylphenyl)methyl]anilino]-5-methyl-N-methylsulfonyl-thiazole-4-carboxamide], for which the EC50 was 25.1 nM in experiment [1] and 50.1 nM at human androgen receptor.
For `CS(=O)(=O)NC(=O)c1nc(N(Cc2ccc(C(F)(F)F)nc2)c2ccc(C#N)cc2)sc1C1CC1` [Compound 659, 2-[4-cyano-N-[[6-(trifluoromethyl)-3-pyridyl]methyl]anilino]-5-cyclopropyl-N-methylsulfonyl-thiazole-4-carboxamide] the same measures were 126 nM and more than 10000 nM.
On to `Cc1oc(N(CCc2ccc(Cl)cc2)Cc2cccc(OC(F)(F)F)c2)nc1C(=O)NS(C)(=O)=O` [Compound 542, 2-[2-(4-chlorophenyl)ethyl-[[3-(trifluoromethoxy)phenyl]methyl]amino]-5-methyl-N-methylsulfonyl-oxazole-4-carboxamide], for which the EC50 was 79.4 nM in experiment [1] and 501 nM at human androgen receptor.
